Experimental data reported in patent US9930892B2, “Molecules having pesticidal utility, and intermediates, compositions, and processes, related thereto” (Dow AgroSciences LLC, priority 2016, dated 2018).

Assays:
[1] = tested on: Beet Armyworm (Spodoptera exigua); assay: Bioassay on Beet Armyworm (BAW), 128-well diet tray assay; format: in vivo; conditions: for BAW % Control (or Mortality) rating: 50 μg/cm^2 on artificial diet, second instar larvae, five to seven days, 25° C.; for mortality at 0.05 µg/cm2 / mortality at 0.5 µg/cm2 / mortality at 5 µg/cm2: Spodoptera exigua, read-out: BAW Percent control (or mortality); for mortality at 0.05 µg/cm2: 0.05 μg/cm^2; for mortality at 0.5 µg/cm2: 0.5 μg/cm^2; for mortality at 5 µg/cm2: 5 μg/cm^2
Protocol: Bioassays on BAW were conducted using a 128-well diet tray assay. One to five second instar BAW larvae were placed in each well (3 mL) of the diet tray that had been previously filled with 1 mL of artificial diet to which 50 μg/cm^2 of the test molecule (dissolved in 50 μL of 90:10 acetone-water mixture) had been applied (to each of eight wells) and then allowed to dry. Trays were covered with a clear self-adhesive cover and held at 25° C., 14:10 light-dark for five to seven days. Percent mortality was recorded for the larvae in each well; activity in the eight wells was then averaged. The results are indicated in the table entitled “Table ABC: Biological Results” (See Table Section).
(§1) Bioassays on BAW and CL were conducted according to the procedures outlined in Example A: Bioassays on Beet Armyworm (“BAW”) and Cabbage Looper (“CL”) using the indicated concentrations.

[2] = tested on: Cabbage Looper (Trichoplusia ni); assay: Bioassay on Cabbage Looper (CL), 128-well diet tray assay; format: in vivo; conditions: for CL % Control (or Mortality) rating: 50 μg/cm^2 on artificial diet, second instar larvae, five to seven days, 25° C.; for mortality at 0.05 µg/cm2 / mortality at 0.5 µg/cm2 / mortality at 5 µg/cm2: Trichoplusia ni, read-out: CL Percent control (or mortality); for mortality at 0.05 µg/cm2: 0.05 μg/cm^2; for mortality at 0.5 µg/cm2: 0.5 μg/cm^2; for mortality at 5 µg/cm2: 5 μg/cm^2
Protocol: Bioassays on CL were conducted using a 128-well diet tray assay. One to five second instar CL larvae were placed in each well (3 mL) of the diet tray that had been previously filled with 1 mL of artificial diet to which 50 μg/cm^2 of the test molecule (dissolved in 50 μL of 90:10 acetone-water mixture) had been applied (to each of eight wells) and then allowed to dry. Trays were covered with a clear self-adhesive cover and held at 25° C., 14:10 light-dark for five to seven days. Percent mortality was recorded for the larvae in each well; activity in the eight wells was then averaged. The results are indicated in the table entitled “Table ABC: Biological Results” (See Table Section).
as §1

Row | Compound | BAW % Control (or Mortality) rating [1] | CL % Control (or Mortality) rating [2] | other results
1 | C=Cc1c(Cl)cc(C(/C=C(\F)c2ccc(C(=O)NN(C)C(=O)NCC(F)(F)F)c(C(F)(F)F)c2)C(F)(F)F)cc1Cl (stereo not shown) [F17, (Z)-2-(4-(3-(3,5-Dichloro-4-vinylphenyl)-1,4,4,4-tetrafluorobut-1-en-1-yl)-2-(trifluoromethyl)benzoyl)-1-methyl-N-(2,2,2-trifluoroethyl)hydrazinecarboxamide] | A (50-100) | A (50-100) | –
2 | O=C(NNS(=O)(=O)CCC(F)(F)F)c1ccc(/C(F)=C/C(c2cc(Cl)c(Cl)c(Cl)c2)C(F)(F)F)cc1C(F)(F)F (stereo not shown) [F24, (Z)-3,3,3-Trifluoro-N′-(4-(1,4,4,4-tetrafluoro-3-(3,4,5-trichlorophenyl)but-1-en-1-yl)-2-(trifluoromethyl)benzoyl)propane-1-sulfonohydrazide] | A (50-100) | A (50-100) | –
3 | CN(NC(=O)c1ccc(/C(F)=C/C(c2cc(Cl)c(Cl)c(Cl)c2)C(F)(F)F)cc1C(F)(F)F)C(=O)CCC(F)(F)F (stereo not shown) [F11, (Z)—N′-Methyl-4-(1,4,4,4-tetrafluoro-3-(3,4,5-trichlorophenyl)but-1-en-1-yl)-N′-(4,4,4-trifluorobutanoyl)-2-(trifluoromethyl)benzohydrazide] | A (50-100) | A (50-100) | –
4 | CC(F)(F)C(/C=C(\F)c1ccc(C(=O)NNC(=O)NCC(F)(F)F)c(C(F)(F)F)c1)c1cc(Cl)c(Cl)c(Cl)c1 (stereo not shown) [F12, (Z)-2-(4-(1,4,4-Trifluoro-3-(3,4,5-trichlorophenyl)pent-1-en-1-yl)-2-(trifluoromethyl)benzoyl)-N-(2,2,2-trifluoroethyl)hydrazinecarboxamide] | A (50-100) | A (50-100) | –
5 | CN(NC(=O)c1ccc(/C(F)=C/C(c2cc(Br)c(Cl)c(Br)c2)C(F)(F)F)cc1C(F)(F)F)C(=O)NCC(F)(F)F (stereo not shown) [F18, (Z)-2-(4-(3-(3,5-Dibromo-4-chlorophenyl)-1,4,4,4-tetrafluorobut-1-en-1-yl)-2-(trifluoromethyl)benzoyl)-1-methyl-N-(2,2,2-trifluoroethyl)hydrazinecarboxamide] | A (50-100) | A (50-100) | –
6 | O=C(CCC(F)(F)F)NNC(=O)c1ccc(/C(F)=C/C(c2cc(Cl)c(Cl)c(Cl)c2)C(F)(F)F)cc1I (stereo not shown) [F21, (Z)-2-Iodo-4-(1,4,4,4-tetrafluoro-3-(3,4,5-trichlorophenyl)but-1-en-1-yl)-N′-(4,4,4-trifluorobutanoyl)benzohydrazide] | A (50-100) | A (50-100) | –
7 | CN(NC(=O)c1ccc(/C(F)=C/C(c2cc(Cl)c(Cl)c(Cl)c2)C(F)(F)F)c2ccccc12)C(=O)NCC(F)(F)F (stereo not shown) [PF1, (Z)-1-Methyl-2-(4-(1,4,4,4-tetrafluoro-3-(3,4,5-trichlorophenyl)but-1-en-1-yl)-1-naphthoyl)-N-(2,2,2-trifluoroethyl)hydrazine-1-carboxamide] | A (50-100) | A (50-100) | –
8 | CN(NC(=O)CCC(F)(F)F)C(=O)c1ccc(/C(F)=C/C(c2cc(Cl)c(Cl)c(Cl)c2)C(F)(F)F)cc1C(F)(F)F (stereo not shown) [F13, (Z)—N-methyl-4-(1,4,4,4-tetrafluoro-3-(3,4,5-trichlorophenyl)but-1-en-1-yl)-N′-(4,4,4-trifluorobutanoyl)-2-(trifluoromethyl)benzohydrazide] | A (50-100) | A (50-100) | –
9 | CN(NC(=O)c1ccc(/C(F)=C/C(c2cc(Cl)cc(C(F)(F)F)c2)C(F)(F)F)cc1C(F)(F)F)C(=O)NCC(F)(F)F (stereo not shown) [PF9, (Z)-2-(4-(3-(3-Chloro-5-(trifluoromethyl)phenyl)-1,4,4,4-tetrafluorobut-1-en-1-yl)-2-(trifluoromethyl)benzoyl)-1-methyl-N-(2,2,2-trifluoroethyl)hydrazine-1-carboxamide] | A (50-100) | A (50-100) | –
10 | O=C(NCC(F)(F)F)NNC(=O)c1ccc(/C(F)=C/C(c2cc(Cl)c(Cl)c(Cl)c2)C(F)(F)F)cc1C(F)(F)F (stereo not shown) [F3, (Z)-2-(4-(1,4,4,4-Tetrafluoro-3-(3,4,5-trichlorophenyl)but-1-en-1-yl)-2-(trifluoromethyl)benzoyl)-N-(2,2,2-trifluoroethyl)hydrazinecarboxamide] | A (50-100) | A (50-100) | –
11 | Cc1cc(/C(F)=C/C(c2cc(Cl)c(Cl)c(Cl)c2)C(F)(F)F)ccc1C(=O)NN(C)C(=O)NCC(F)(F)F (stereo not shown) [F28, (Z)-1-Methyl-2-(2-methyl-4-(1,4,4,4-tetrafluoro-3-(3,4,5-trichlorophenyl)but-1-en-1-yl)benzoyl)-N-(2,2,2-trifluoroethyl)hydrazinecarboxamide] | – | – | mortality at 0.05 µg/cm2 [1]: 88%; mortality at 0.5 µg/cm2 [1]: 100%; mortality at 5 µg/cm2 [1]: 100%; mortality at 0.05 µg/cm2 [2]: 100%; mortality at 0.5 µg/cm2 [2]: 100%; mortality at 5 µg/cm2 [2]: 100%
12 | CN(NC(=O)c1ccc(/C(F)=C/C(c2cc(Cl)c(Cl)c(Cl)c2)C(F)(F)F)cc1C(F)(F)F)C(=O)NCC(F)(F)F (stereo not shown) [F1, (Z)-1-methyl-2-(4-(1,4,4,4-tetrafluoro-3-(3,4,5-trichlorophenyl)but-1-en-1-yl)-2-(trifluoromethyl)benzoyl)-N-(2,2,2-trifluoroethyl)hydrazinecarboxamide] | A (50-100) | A (50-100) | mortality at 0.05 µg/cm2 [1]: 100%; mortality at 0.5 µg/cm2 [1]: 100%; mortality at 5 µg/cm2 [1]: 100%; mortality at 0.05 µg/cm2 [2]: 100%; mortality at 0.5 µg/cm2 [2]: 100%; mortality at 5 µg/cm2 [2]: 100%
13 | CC(C)(C)C(=O)NNC(=O)c1ccc(/C(F)=C/C(c2cc(Cl)c(Cl)c(Cl)c2)C(F)(F)F)cc1C(F)(F)F (stereo not shown) [F29, (Z)—N′-Pivaloyl-4-(1,4,4,4-tetrafluoro-3-(3,4,5-trichlorophenyl)but-1-en-1-yl)-2-(trifluoromethyl)benzohydrazide] | A (50-100) | A (50-100) | –
14 | CN(NC(=O)c1ccc(/C(F)=C/C(c2cc(Cl)c(Br)c(Cl)c2)C(F)(F)F)cc1C(F)(F)F)C(=O)NCC(F)(F)F (stereo not shown) [F23, (Z)-2-(4-(3-(4-Bromo-3,5-dichlorophenyl)-1,4,4,4-tetratfluorobut-1-en-1-yl)-2-(trifluoromethyl)benzoyl)-1-methyl-N-(2,2,2-trifluoroethyl)hydrazinecarboxamide] | A (50-100) | A (50-100) | –
15 | CN(NC(=O)c1ccc(/C(F)=C/C(c2cc(Cl)c(Cl)c(Cl)c2)C(F)(F)F)cc1C(F)(F)F)S(=O)(=O)CCC(F)(F)F (stereo not shown) [F19, (Z)-3,3,3-trifluoro-N-methyl-N′-(4-(1,4,4,4-tetrafluoro-3-(3,4,5-trichlorophenyl)but-1-en-1-yl)-2-(trifluoromethyl)benzoyl)propane-1-sulfonohydrazide] | A (50-100) | A (50-100) | –
16 | O=C(CCC(F)(F)F)NNC(=O)c1ccc(/C(F)=C/C(c2cc(Cl)c(Cl)c(Cl)c2)C(F)(F)F)cc1Cl (stereo not shown) [F20, (Z)-2-Chloro-4-(1,4,4,4-tetrafluoro-3-(3,4,5-trichlorophenyl)but-1-en-1-yl)-N′-(4,4,4-trifluorobutanoyl)benzohydrazide] | A (50-100) | A (50-100) | –
17 | O=C(CCC(F)(F)F)NNC(=O)c1ccc(/C(F)=C/C(c2cc(Cl)c(Cl)c(Cl)c2)C(F)(F)F)cc1C(F)(F)F (stereo not shown) [F4, (Z)-4-(1,4,4,4-Tetrafluoro-3-(3,4,5-trichlorophenyl)but-1-en-1-yl)-N′-(4,4,4-trifluorobutanoyl)-2-(trifluoromethyl)benzohydrazide] | A (50-100) | A (50-100) | –
18 | CN(NC(=O)c1ccc(/C(F)=C/C(c2cc(Cl)c(Cl)c(Cl)c2)C(F)(F)F)cc1)C(=O)NCC(F)(F)F (stereo not shown) [FC1, (Z)-1-methyl-2-(4-(1,4,4,4-tetrafluoro-3-(3,4,5-trichlorophenyl)but-1-en-1-yl)benzoyl)-N-(2,2,2-trifluoroethyl)hydrazinecarboxamide, reference compound] | – | – | mortality at 0.05 µg/cm2 [1]: 0%; mortality at 0.5 µg/cm2 [1]: 0%; mortality at 5 µg/cm2 [1]: 25%; mortality at 0.05 µg/cm2 [2]: 0%; mortality at 0.5 µg/cm2 [2]: 0%; mortality at 5 µg/cm2 [2]: 7%
19 | O=C(NCC(F)(F)F)NNC(=O)c1ccc(/C(F)=C/C(c2cc(Cl)c(Cl)c(Cl)c2)C(F)(F)F)cc1Br (stereo not shown) [F2, (Z)-2-(2-bromo-4-(1,4,4,4-tetrafluoro-3-(3,4,5-trichlorophenyl)but-1-en-1-yl)benzoyl)-N-(2,2,2-trifluoroethyl)hydrazinecarboxamide] | A (50-100) | A (50-100) | –
